Legend:
[1] = biological target: Sigma non-opioid intracellular receptor 1 (Homo sapiens, UniProt Q99720); experiment: DRUGMATRIX: Sigma1 radioligand binding (ligand: [3H] Haloperidol); format: cell membranes, Jurkat, Membrane; details: jurkat; Not Active = under 50% inhibition at 10 µM
[2] = DRUGMATRIX: Calcium Channel Type L, Phenylalkylamine radioligand binding (ligand: [3H] (-)-Desmethoxyverapamil (D-888)); format: cell membranes, Rattus norvegicus, Wistar, Brain, Membrane; details: Not Active = under 50% inhibition at 10 µM
[3] = biological target: T1, C-X-C chemokine receptor type 2 (Homo sapiens, UniProt P25025); format: cell membranes, CHO-K1, Membrane; details: cho-k1; note: in other assays of this panel Not Active means under 50% inhibition at 10 µM
T1 sequence (P25025 whole entry): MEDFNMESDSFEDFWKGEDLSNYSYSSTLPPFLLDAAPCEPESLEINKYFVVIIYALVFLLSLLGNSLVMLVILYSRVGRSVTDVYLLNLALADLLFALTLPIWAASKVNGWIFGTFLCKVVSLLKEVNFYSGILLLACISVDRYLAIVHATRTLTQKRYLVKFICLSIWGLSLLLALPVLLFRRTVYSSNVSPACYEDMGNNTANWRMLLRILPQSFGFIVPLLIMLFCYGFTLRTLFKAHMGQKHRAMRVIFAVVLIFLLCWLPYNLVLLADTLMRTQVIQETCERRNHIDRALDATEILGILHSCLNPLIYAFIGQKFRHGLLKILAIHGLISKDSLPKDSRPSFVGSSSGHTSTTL

[4] = DRUGMATRIX: Nicotinic Acetylcholine radioligand binding (ligand: [125I] Epibatidine); format: cell membranes, Membrane; details: imr-32; Not Active = under 50% inhibition at 10 µM
[5] = DRUGMATRIX: Phorbol Ester radioligand binding (ligand: [3H] PDBu); format: cell membranes, Mus musculus, ICR, Brain, Membrane; details: Not Active = under 50% inhibition at 10 µM
[6] = biological target: Tyrosine-protein kinase Fyn (Homo sapiens, UniProt P06241); experiment: biochemical; format: cell-based, Insect cells; details: insect cells;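 note: enzymatic inhibition of Fyn kinase activity measured with Poly(Glu:Tyr) as the phosphorylation substrate; in other assays of this panel Not Active means under 50% inhibition at 10 µM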
Sequence of Tyrosine-protein kinase Fyn (P06241 whole entry): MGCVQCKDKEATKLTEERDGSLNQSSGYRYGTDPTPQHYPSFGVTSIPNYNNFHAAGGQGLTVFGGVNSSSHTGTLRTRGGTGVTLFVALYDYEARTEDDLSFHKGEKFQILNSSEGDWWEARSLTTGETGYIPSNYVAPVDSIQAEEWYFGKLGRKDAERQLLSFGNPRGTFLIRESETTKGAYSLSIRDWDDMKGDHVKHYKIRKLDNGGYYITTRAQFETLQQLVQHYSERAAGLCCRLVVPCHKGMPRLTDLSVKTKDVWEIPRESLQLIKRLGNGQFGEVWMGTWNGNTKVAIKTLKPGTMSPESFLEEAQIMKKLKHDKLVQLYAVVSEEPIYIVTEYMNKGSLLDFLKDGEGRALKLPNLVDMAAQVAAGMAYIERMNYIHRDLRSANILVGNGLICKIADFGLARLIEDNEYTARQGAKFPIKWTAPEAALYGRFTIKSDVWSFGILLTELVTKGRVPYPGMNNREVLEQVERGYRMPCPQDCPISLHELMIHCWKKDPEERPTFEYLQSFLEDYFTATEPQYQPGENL

Sequence of Sigma non-opioid intracellular receptor 1 (Q99720 whole entry): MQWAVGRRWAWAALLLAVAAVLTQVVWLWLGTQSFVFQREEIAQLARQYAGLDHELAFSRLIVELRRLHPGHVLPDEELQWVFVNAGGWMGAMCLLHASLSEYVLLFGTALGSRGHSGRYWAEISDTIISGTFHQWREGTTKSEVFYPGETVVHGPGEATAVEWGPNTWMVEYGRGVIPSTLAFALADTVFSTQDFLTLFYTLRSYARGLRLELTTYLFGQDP

O=C1CN(/N=C/c2ccc([N+](=O)[O-])o2)C(=O)N1 [NITROFURANTOIN]
Not Active: IC50 [1] | IC50 [2] | Ki [2] | IC50 [3] | IC50 [4] | Ki [4] | IC50 [5] | Ki [5] | IC50 [6]

Cc1c(N)nc([C@H](CC(N)=O)NC[C@H](N)C(N)=O)nc1C(=O)N[C@H](C(=O)N[C@H](C)[C@@H](O)[C@H](C)C(=O)N[C@H](C(=O)NCCc1nc(-c2nc(C(=O)NCCC[S+](C)C)cs2)cs1)[C@@H](C)O)[C@@H](O[C@@H]1O[C@@H](CO)[C@@H](O)[C@H](O)[C@@H]1O[C@H]1O[C@H](CO)[C@@H](O)[C@H](OC(N)=O)[C@@H]1O)c1c[nH]cn1.[Br-] [BLEOMYCIN A2]
Not Active: IC50 [1] | IC50 [2] | Ki [2] | IC50 [3] | IC50 [4] | Ki [4] | IC50 [5] | Ki [5] | IC50 [6]

CC(C)Cc1ccc([C@H](C)C(=O)O)cc1 [DEXIBUPROFEN]
Not Active: IC50 [1] | IC50 [2] | Ki [2] | IC50 [3] | IC50 [4] | Ki [4] | IC50 [5] | Ki [5] | IC50 [6]

NS(=O)(=O)c1cc(C(=O)O)c(NCc2ccco2)cc1Cl [FUROSEMIDE]
Not Active: IC50 [1] | IC50 [2] | Ki [2] | IC50 [3] | IC50 [4] | Ki [4] | IC50 [5] | Ki [5] | IC50 [6]

C[C@H]1C[C@H]2[C@@H]3CCC4=CC(=O)C=C[C@]4(C)[C@@]3(F)[C@@H](O)C[C@]2(C)[C@@]1(O)C(=O)CO [BETAMETHASONE]
Not Active: IC50 [1] | IC50 [2] | Ki [2] | IC50 [3] | IC50 [4] | Ki [4] | IC50 [5] | Ki [5] | IC50 [6]

COC(=O)C[C@](O)(CCC(C)(C)O)C(=O)O[C@@H]1C(OC)=C[C@]23CCCN2CCc2cc4c(cc2[C@H]13)OCO4 [HARRINGTONINE]
Not Active: IC50 [1] | IC50 [2] | Ki [2] | IC50 [3] | IC50 [4] | Ki [4] | IC50 [5] | Ki [5] | IC50 [6]

CC(C)(c1ccc(O)cc1)c1ccc(O)cc1 [BISPHENOL A]
Not Active: IC50 [1] | IC50 [2] | Ki [2] | IC50 [3] | IC50 [4] | Ki [4] | IC50 [5] | Ki [5] | IC50 [6]

CCN1CCN(C(=O)N[C@@H](C(=O)N[C@@H]2C(=O)N3[C@@H]2SC(C)(C)[C@@H]3C(=O)O)c2ccccc2)C(=O)C1=O [PIPERACILLIN]
Not Active: IC50 [1] | IC50 [2] | Ki [2] | IC50 [3] | IC50 [4] | Ki [4] | IC50 [5] | Ki [5] | IC50 [6]

From ChEMBL document CHEMBL1909046, “DrugMatrix in vitro pharmacology data”
